Measured values from US20230114459A1, “Composition for Use in the Prophylaxis and Treatment of Viral Infections of the Asfarviridae Family” (priority 2020, published 2023).

Tests used:
[1] = tested on: Vero cells infected with virus particles
[2] = tested on: African Swine Fever Virus (ASFV)

| Structure (SMILES) | CPE (first test) [1] | CPE (second test) [1] | Visual scoring of protection against the cytopathic effect of the virus [1] | Solubility in the test solution [1] | Cq value for ASFV compared to positive control [2] |
| --- | --- | --- | --- | --- | --- |
| CCCCCC(=O)O [100% C6, caproic acid] | 3/3 | 3/3 | – | – | – |
| CCCCCCCC(=O)O [100% C8, caprylic acid] | 2/2 | 2/2 | scored best | – | – |
| CCCCCCCCC(=O)O [100% C9, pelargonic acid] | 2/2 | 2/2 | – | – | – |
| CCCCCCCCCC(=O)O [100% C10, capric acid] | 2/4 | 2/4 | – | – | – |
| CCCCCCCCCCCC(=O)O [100% C12, lauric acid] | – | – | – | solubility issue was observed | – |
| CCCCCCCC(=O)O [Composition F1, caprylic acid] | – | – | – | – | significantly increase the Cq value |
